Source: PMC2892826 (Cell cycle (Georgetown, Tex.), 2009)
Read-outs that look alike come from different tables or passages of the source.

Columns and labels:
[1] = system: primary multiple myeloma cells from patients' bone marrow; test: Proliferation of primary MM cells; type: cell-based, human; conditions: read-out: IC50 Proliferation
[2] = system: MCF-7/MCF-10A, T80-Hras/T80, C7-Kras/C7 cells; test: TUNEL apoptosis assay in 3 pairs of cell lines; type: cell-based, human; conditions: 24 h
[3] = system: MCF-7/MCF-10A, T80-Hras/T80, C7-Kras/C7 cells; test: Cell death by Trypan Blue exclusion in 3 pairs of cell lines; type: cell-based, human; conditions: 24 h, Fig. 4
[4] = system: RPMI-8226 multiple myeloma cells; test: MTT cell viability assay; type: cell-based, human; conditions: read-out: IC50 cell viability (MTT)
[5] = system: U266 multiple myeloma cells; test: MTT cell viability assay; type: cell-based, human; conditions: read-out: IC50 cell viability (MTT)
[6] = target: tumor PGPH activity of the proteasome (Homo sapiens, UniProt P28072); test: Proteasome activity in A549 tumor lysates after in vivo treatment, PGPH; design: species or system nude mice; conditions: A549 tumors, 1 mpk i.p., 2 h after last injection
A549 lung cancer cells = test: MTT cell viability assay; type: cell-based, human; conditions: read-out: IC50 cell viability (MTT)
[7] = system: MCF-7 breast cancer cells; test: MTT cell viability assay; type: cell-based, human; conditions: read-out: IC50 cell viability (MTT)
A549 human lung tumors = test: A549 xenograft in nude mice; type: in vivo; conditions: A549 s.c. xenograft, 1 mpk i.p. 2x weekly
[8] = target: T-L activity of purified 20S proteasome (Oryctolagus cuniculus, UniProt G1SWK8); test: Proteolytic activity of purified 20S proteasome, T-L; type: biochemical, rabbit; conditions: read-out: IC50 T-L, in vitro
T-L activity of purified 20S proteasome, sequence (G1SWK8 44-271): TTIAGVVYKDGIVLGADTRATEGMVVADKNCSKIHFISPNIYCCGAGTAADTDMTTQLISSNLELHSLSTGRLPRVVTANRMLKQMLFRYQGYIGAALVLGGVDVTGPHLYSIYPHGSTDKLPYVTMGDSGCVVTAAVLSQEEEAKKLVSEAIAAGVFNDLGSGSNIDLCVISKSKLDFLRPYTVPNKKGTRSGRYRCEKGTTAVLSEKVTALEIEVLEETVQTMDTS

[9] = system: p27^Kip1 levels in A549 lung cancer cells; test: Western blot of p27Kip1 in cultured A549 cells; type: cell-based, human; conditions: 48 h
T80-Hras ovarian cells = test: MTT cell viability assay; type: cell-based, human; conditions: read-out: IC50 cell viability (MTT), T80-Hras
[10] = target: PGPH activity of purified 20S proteasome (Oryctolagus cuniculus, UniProt G1T235); test: Proteolytic activity of purified 20S proteasome, PGPH; type: biochemical, rabbit; conditions: read-out: IC50 PGPH, in vitro
PGPH activity of purified 20S proteasome, sequence (G1T235 96-265): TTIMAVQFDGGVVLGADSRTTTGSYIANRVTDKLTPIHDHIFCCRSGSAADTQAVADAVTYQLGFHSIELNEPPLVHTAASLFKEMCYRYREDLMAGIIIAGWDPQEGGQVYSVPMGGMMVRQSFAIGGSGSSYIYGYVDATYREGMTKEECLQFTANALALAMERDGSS

[11] = system: DU-145 prostate cancer cells; test: MTT cell viability assay; type: cell-based, human; conditions: read-out: IC50 cell viability (MTT)
[12] = target: tumor T-L activity of the proteasome (Homo sapiens, UniProt Q99436); test: Proteasome activity in A549 tumor lysates after in vivo treatment, T-L; design: species or system nude mice; conditions: A549 tumors, 1 mpk i.p., 2 h after last injection
[13] = system: MCF-7/MCF-10A, T80-Hras/T80, C7-Kras/C7 cells; test: Proliferation by Trypan Blue cell counting in 3 pairs of cell lines; type: cell-based, human; conditions: 24 h, Fig. 3
[14] = Tolerability in treated mice; type: in vivo; conditions: mice treated with PI-083
[15] = system: primary multiple myeloma cells from patients' bone marrow; test: Cell death of primary MM cells; type: cell-based, human; conditions: read-out: IC50 Cell Death
[16] = system: LNCaP prostate cancer cells; test: MTT cell viability assay; type: cell-based, human
[17] = target: hepatic CT-L, T-L, and PGPH activities (Mus musculus, UniProt O09061+O55234+P70195+Q60692); type: in vivo, nude mice; conditions: livers of A549 tumor-bearing mice, 1 mpk i.p., 2 h after last injection
[18] = target: CT-L activity of purified 20S proteasome (Oryctolagus cuniculus, UniProt G1SU71+G1T4Q9); test: Proteolytic activity of purified 20S proteasome, CT-L; type: biochemical, rabbit; conditions: read-out: IC50 CT-L; purified 20S proteasome, in vitro
CT-L activity of purified 20S proteasome, sequence (G1T4Q9 60-263): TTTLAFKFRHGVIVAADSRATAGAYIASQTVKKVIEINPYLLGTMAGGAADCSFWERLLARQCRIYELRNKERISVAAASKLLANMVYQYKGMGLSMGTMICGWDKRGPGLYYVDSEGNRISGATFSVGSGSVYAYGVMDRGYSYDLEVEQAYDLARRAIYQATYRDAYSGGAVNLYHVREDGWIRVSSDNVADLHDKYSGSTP
CT-L activity of purified 20S proteasome, sequence (G1SU71 29-241): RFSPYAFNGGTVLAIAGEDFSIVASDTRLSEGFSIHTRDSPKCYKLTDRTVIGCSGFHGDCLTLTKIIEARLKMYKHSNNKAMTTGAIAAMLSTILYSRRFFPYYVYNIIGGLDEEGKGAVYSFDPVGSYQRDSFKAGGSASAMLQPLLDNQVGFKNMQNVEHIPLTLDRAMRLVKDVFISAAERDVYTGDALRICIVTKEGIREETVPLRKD

[19] = system: primary multiple myeloma cells from patients' bone marrow; test: Viability of primary MM cells; type: cell-based, human; conditions: read-out: IC50 Viability
CaLu-1 lung cancer cells = test: MTT cell viability assay; type: cell-based, human; conditions: read-out: IC50 cell viability (MTT)
[20] = system: MCF-10A immortalized non-transformed breast cells; test: MTT cell viability assay; type: cell-based, human
[21] = target: CT-L activity in MCF-7/MCF-10A, T80-Hras/T80, C7-Kras/C7 cells (Homo sapiens, UniProt P20618+P28074); type: cell-based; conditions: 24 h, 3 pairs of cell lines, Fig. 2
[22] = system: C7 (HPDE6-C7) normal/immortalized pancreatic duct epithelial cells; test: MTT cell viability assay; type: cell-based, human; conditions: read-out: IC50 cell viability (MTT)
[23] = system: C7-Kras (HPDE6-C7K-ras) pancreatic cells; test: MTT cell viability assay; type: cell-based, human
[24] = read-out: IC50 cell viability (MTT), 24 h
[25] = read-out: IC50 cell viability (MTT), 72 h

Question: For O=C1C(Cl)=C(Nc2ccc(S(=O)(=O)Nc3ccccn3)cc2)C(=O)c2ccccc21 [PI-083], which IC50 ([1]; patient 1, 24 h) is on record?
Answer: The IC50 was 5 µM.

Question: What about the IC50 ([1]; patient 2, 24 h) of the same compound?
Answer: The IC50 was 2.9 µM.

Question: And the IC50 ([1]; patient 4, 24 h)?
Answer: The IC50 was 1.3 µM.

Question: And the IC50 ([1]; patient 5, 24 h)?
Answer: The IC50 was 2.2 µM.

Question: What about the IC50 ([1]; patient 6, 24 h) of the same compound?
Answer: The IC50 was 2.2 µM.

Question: And the IC50 ([1]; patient 10, 24 h)?
Answer: The IC50 was 10 µM.

Question: What about the “apoptosis (TUNEL)” value ([2]; T80 cells) of the same compound?
Answer: The value was “induced very little apoptosis”.

Question: What about the “apoptosis (TUNEL)” value ([2]; cancer cell lines MCF-7, T80-Hras and C7-Kras) of the same compound?
Answer: Its value is “induced apoptosis in all 3 cancer cell lines”.

Question: And the “apoptosis (TUNEL)” value ([2]; non-transformed MCF-10A and C7)?
Answer: Its value is “did not induce apoptosis”.

Question: What about the “cell death, cancer vs non-transformed cells” value [3] of the same compound?
Answer: Its value is “much more effective in increasing cell death in all 3 cancer cell lines over their non-transformed counterparts”.

Question: And the IC50 ([4]; RPMI-8226, 24 h)?
Answer: Its IC50 is 7.4 ± 0.38 µM.

Question: And the IC50 ([4]; RPMI-8226, 72 h)?
Answer: Its IC50 is 10 ± 4 µM.

Question: What about the IC50 ([5]; U266, 24 h) of the same compound?
Answer: Its IC50 is 23 ± 1.7 µM.

Question: What about the IC50 ([5]; U266, 72 h) of the same compound?
Answer: Its IC50 is 7 ± 1.5 µM.

Question: What about the “inhibition of tumor PGPH activity vs vehicle-treated controls” value [6] of the same compound?
Answer: The value was 34%.

Question: And the IC50 (A549 lung cancer cells; A549, 24 h)?
Answer: Its IC50 is 41 ± 17 µM.

Question: What about the IC50 (A549 lung cancer cells; A549, 72 h) of the same compound?
Answer: Its IC50 is 11 ± 6.7 µM.

Question: And the IC50 ([7]; MCF-7, 24 h)?
Answer: Its IC50 is 4.5 ± 0.82 µM.

Question: And the IC50 ([7]; MCF-7, 72 h)?
Answer: Its IC50 is 2.2 ± 1.1 µM.

Question: What about the tumor growth inhibition (A549 human lung tumors) of the same compound?
Answer: Its tumor growth inhibition is 54%.

Question: What about the average tumor size (A549 human lung tumors; start ~200 mm^3, 16 days) of the same compound?
Answer: Its average tumor size is “about 511 ± 134 mm^3”.

Question: What about the IC50 [8] of the same compound?
Answer: The IC50 was 4.5 ± 1.4 µM.

Question: And the “p27^Kip1 levels” value [9]?
Answer: The value was “marked increase”.

Question: And the IC50 (T80-Hras ovarian cells; 24 h)?
Answer: The IC50 was 1.5 ± 0.57 µM.

Question: And the IC50 (T80-Hras ovarian cells; 72 h)?
Answer: The IC50 was 2.1 ± 0.4 µM.

Question: And the IC50 [10]?
Answer: Its IC50 is 4.5 ± 1.2 µM.

Question: What about the IC50 ([11]; DU-145, 24 h) of the same compound?
Answer: Its IC50 is 8.6 ± 0.63 µM.

Question: And the IC50 ([11]; DU-145, 72 h)?
Answer: The IC50 was 5 ± 0.72 µM.

Question: And the “inhibition of tumor T-L activity vs vehicle-treated controls” value [12]?
Answer: The value was 12%.

Question: And the “inhibition of proliferation, cancer vs non-transformed cells” value [13]?
Answer: The value was “more potently than their non-transformed”.

Question: What about the “weight, appetite, activity of treated mice” value [14] of the same compound?
Answer: The value was “no weight loss, change in appetite or activity”.

Question: And the IC50 ([15]; patient 5, 24 h)?
Answer: Its IC50 is 1.1 µM.

Question: And the IC50 ([15]; patient 10, 24 h)?
Answer: Its IC50 is 9 µM.

Question: And the IC50 [16, 24]?
Answer: The IC50 was 14 ± 2.8 µM.

Question: And the IC50 [16, 25]?
Answer: The IC50 was 5.2 ± 1.1 µM.

Question: What about the “effect on liver proteasome activities (CT-L, T-L, PGPH)” value [17] of the same compound?
Answer: Its value is “did not inhibit”.

Question: What about the IC50 [18] of the same compound?
Answer: The IC50 was 1 ± 0.63 µM.

Question: What about the IC50 ([19]; patient 2, 24 h) of the same compound?
Answer: The IC50 was greater than 10 µM.

Question: What about the IC50 ([19]; patient 3, 24 h) of the same compound?
Answer: Its IC50 is greater than 10 µM.

Question: And the IC50 ([19]; patient 4, 24 h)?
Answer: The IC50 was 2.2 µM.

Question: What about the IC50 ([19]; patient 4, 72 h) of the same compound?
Answer: The IC50 was 2.2 µM.

Question: And the IC50 ([19]; patient 5, 24 h)?
Answer: The IC50 was 3.4 µM.

Question: And the IC50 ([19]; patient 6, 72 h)?
Answer: The IC50 was 1.4 µM.

Question: And the IC50 ([19]; patient 7, 24 h)?
Answer: The IC50 was 1.8 µM.

Question: And the IC50 ([19]; patient 7, 48 h)?
Answer: Its IC50 is 1.4 µM.

Question: And the IC50 ([19]; patient 7, 72 h)?
Answer: Its IC50 is 1.3 µM.

Question: What about the IC50 ([19]; patient 8, 24 h) of the same compound?
Answer: The IC50 was 2 µM.

Question: And the IC50 ([19]; patient 8, 72 h)?
Answer: The IC50 was 1.8 µM.

Question: And the IC50 ([19]; patient 9, 24 h)?
Answer: Its IC50 is 1.4 µM.

Question: And the IC50 ([19]; patient 10, 24 h)?
Answer: The IC50 was greater than 10 µM.

Question: What about the IC50 (CaLu-1 lung cancer cells; CaLu-1, 24 h) of the same compound?
Answer: The IC50 was 7.3 ± 0.43 µM.

Question: And the IC50 (CaLu-1 lung cancer cells; CaLu-1, 72 h)?
Answer: Its IC50 is 4.9 ± 1.2 µM.

Question: And the IC50 [20, 24]?
Answer: The IC50 was 17 ± 0.86 µM.

Question: What about the IC50 [20, 25] of the same compound?
Answer: Its IC50 is 4.2 ± 2.1 µM.

Question: What about the “selectivity of CT-L inhibition, tumor vs non-transformed cells” value [21] of the same compound?
Answer: Its value is “inhibited more selectively the CT-L activity in tumor over non-transformed cells”.

Question: And the IC50 ([22]; C7, 24 h)?
Answer: The IC50 was 5.1 ± 0.53 µM.

Question: What about the IC50 ([22]; C7, 72 h) of the same compound?
Answer: Its IC50 is 4.2 ± 1.6 µM.

Question: And the IC50 [23, 24]?
Answer: Its IC50 is 2.4 ± 0.23 µM.

Question: And the IC50 [23, 25]?
Answer: Its IC50 is 1.9 ± 0.2 µM.
